1 molecule from US10897906B2, “Fungicide for the treatment of fungal pathogens causing mycotoxins” (priority 2015, dated 2021) can be followed below.

The nature of series [1]: Contact angle of aqueous bicarbonate spray solution (Kruss DSA30, hydrophobic Para-film surface). The class given is physicochemical. The following applies: aqueous solutions at typical in-use concentrations (2-5% active ingredient). As for the experimental part: (§1) In this application surface tension and contact angle were measured using a Kruss DSA30 system, […] was measured using a pendant drop technique with analysis carried out after application of the Laplace-Young equation, […] was measured following application of a droplet on to an artificial hydrophobic (Para-film) surface. The particle sizes of the crystals of the bicarbonate salt were determined by microscopy following the application of Motic Advanced Imaging Software.

Series [2] is described as follows: Surface tension of aqueous bicarbonate spray solution (Kruss DSA30). In kind it is physicochemical. The following applies: aqueous solutions at typical in-use concentrations (2-5% active ingredient). As for the experimental part:
as §1

In the case of `O=C([O-])O.[K+]` [potassium bicarbonate], the “Contact angle with the plant tissues compared with water” value in series [1] was “virtually identical to that achieved with water alone”. The “Surface tension compared with water” value in series [2] is given as “virtually identical to that achieved with water alone”.
